Experimental data reported in publication PMC3614957 (PLoS ONE, 2013).

Legend:
[1] = Membrane dipole potential assessed by di-8-ANEPPS, labeled lipid vesicles; format: physicochemical; conditions: di-8-ANEPPS labeled LUV, control additions (data not shown)
Description: (§1) Human blood samples were obtained from healthy volunteers, with their previous written informed consent, at the Instituto Português do Sangue (Lisbon, Portugal). This study was approved by the ethics committee of the Faculdade de Medicina da Universidade de Lisboa. Isolation of erythrocytes and PBMC and labeling of these cells with di-8-ANEPPS (Invitrogen, Carlsbad, CA, USA) were performed as described before, [29]. […] They were incubated at 1% hematocrit in buffer supplemented with 0.05% (m/v) Pluronic F-127 (Sigma) and di-8-ANEPPS 10 µM. PBMC were isolated by density gradient using Ficoll-Paque Plus (GE Healthcare, Little Chalfont, UK) and counted in a Neubauer improved hemocytometer. They were incubated at 3000 cells/µL in Pluronic-supplemented buffer with 3.3 µM di-8-ANEPPS. Cells were incubated with the fluorescent probe during 1 h, with gentle agitation, and unbound probe was washed with Pluronic-free buffer on two centrifugation cycles. […] For lipid vesicles labeling, suspensions with […] of total lipid were incubated overnight with di-8-ANEPPS 10 µM, to ensure maximum incorporation of the probe. The maximum concentration of DMSO or DMSO:ethanol in the suspensions was 2.4% (v/v) at 6 µM of peptide or cholesterol. […] The variation of R with the peptide concentration was analyzed by a single binding site model: [drawing 5] […]

PBMC = assay: Membrane dipole potential assessed by di-8-ANEPPS, PBMC; format: cell-based, human; conditions: up to 6 µM
Description: as §1

human erythrocytes = assay: Membrane dipole potential assessed by di-8-ANEPPS, erythrocytes; format: cell-based; conditions: up to 6 µM
Description: as §1

[2] = design: method as in 2 sources, one per row (each row's own in cited_ref): ref 35 = [35]; PMID 14514352; doi:10.1042/BJ20031350; 35 Veiga S , Henriques S , Santos NC , Castanho MARB ( 2004 ) Putative role of membranes in the HIV fusion inhibitor enfuvirtide mode of action at the molecular level . Biochem J 377 : 107 – 110 . 145 ||| ref 8, 29 = [8]; PMID 18410103; doi:10.1021/ja711247n; 8 Franquelim HG , Loura LM , Santos NC , Castanho MARB ( 2008 ) Sifuvirtide screens rigid membrane surfaces. establishment of a correlation between efficacy and membrane domain selectivity among HIV f || [29]; PMID 21075080; doi:10.1016/j.bbrc.2010.11.013; 29 Matos PM , Freitas T , Castanho MARB , Santos NC ( 2010 ) The role of blood cell membrane lipids on the mode of action of HIV-1 fusion inhibitor sifuvirtide . Biochem Biophys Res Commun 403 : 270 –; conditions: cited from earlier work

| Molecule | changes on the dipole potential [1] | effect on membrane dipole potential (PBMC) | effect on membrane dipole potential (human erythrocytes) | binding to POPC vesicles [2] |
| --- | --- | --- | --- | --- |
| CC(C)CCC[C@@H](C)[C@H]1CC[C@H]2[C@@H]3CC=C4C[C@@H](O)CC[C@]4(C)[C@H]3CC[C@]12C [cholesterol] | no changes | not sufficient to induce a detectable membrane potential change | not sufficient to induce a detectable membrane potential change | – |
| sifuvirtide | – | – | – | residual binding |
